From patent publication US20220193081A1 (Ellamed IP & Services PTE. LTD., priority 2019, published 2022)
Like-named read-outs stand apart in the source and are kept apart here.

Assays:
[1] = Maximum dissolution study in 50% aqueous ethanol, visual inspection (Example 5); format: physicochemical; conditions: pH 5.5, NaOH
Method: Before being placed on storage, and at time points 7, 42 days and 2 months, the concentration of sildenafil in the mixtures were assayed using HPLC. The samples were then stored at either −20° C., 2-8° C. or 25° C. for periods of up to 2 months. Periodically, the samples were visually inspected for evidence of crystallization.

[2] = cited from earlier work
[3] = HPLC assay on storage of sildenafil citrate in buffered 60% aqueous ethanol (Example 4); format: physicochemical; conditions: pH 5.5, NaOH
Method: (§1) Before being placed on storage, and at time points 7 and 42 days, the concentration of sildenafil in the mixtures were assayed using HPLC. The samples were then stored at either −20° C., 2-8° C. or 25° C. for periods of up to 42 days. Periodically, the samples were visually inspected for evidence of crystallization.

[4] = Extended stability in buffered 50% ethanol, HPLC assay of sildenafil and impurities (Example 6); format: physicochemical
Method: Before being placed on storage in glass vials, plastic containers or Easysnap® blisters, and at time points up to 160 days, the concentration of sildenafil and its impurities in the mixtures were assayed using HPLC. The samples were then stored at 25° C./60% RH, 30° C./65% RH or 40° C./75% RH for periods of up to 160 days. The results of the assays are shown in Table 10 (sildenafil), Table 11 (Impurity B) and Table 12 (Impurity D).

[5] = tablets or oral suspension; cited from earlier work
[6] = Visual inspection on storage of sildenafil citrate in buffered 60% aqueous ethanol (Example 4); format: physicochemical; conditions: pH 5.5, NaOH
Method: as §1

[7] = EMEA CHMP Assessment Report for VIZARSIN
[8] = Jordanian Pharmaceutical Manufacturing Co.
[9] = Easysnap ®, 25° C./60% RH, Day 32
[10] = Easysnap ®, 25° C./60% RH, Day 80
[11] = Easysnap ®, 25° C./60% RH, Day 159
[12] = Easysnap ®, 30° C./65% RH, Day 32
[13] = Easysnap ®, 40° C./75% RH, Day 32
[14] = plastic, 25° C./60% RH, Day 159

SMILES: CCCc1nn(C)c2c(=O)nc(-c3cc(S(=O)(=O)N4CCN(C)CC4)ccc3OCC)[nH]c12.O=C(O)CC(O)(CC(=O)O)C(=O)O [sildenafil citrate, 1-[[3-(4,7-Dihydro-1-methyl-7-oxo-3-propyl-1H-pyrazolo[4,3-d]pyrimidin-5-yl)-4-ethoxyphenyl]sulfonyl]-4-methylpiperazine citrate salt]
- visual inspection for crystallization ([1]; Day 0 51.65 mg/ml, without sucralose, 2-8° C.): Prec.
- visual inspection for crystallization ([1]; Day 0 51.65 mg/ml, without sucralose, −20° C.): Prec.
- visual inspection for crystallization ([1]; Day 0 82.79 mg/ml, with sucralose, 2-8° C.): Prec.
- visual inspection for crystallization ([1]; Day 0 82.79 mg/ml, with sucralose, −20° C.): Prec.
- visual inspection for crystallization ([1]; Day 0 123.95 mg/ml, with sucralose, 25° C. (single cell in the row)): Prec.
- solubility in acetone [2, 7]: insoluble
- solubility in chloroform [2, 7]: insoluble
- solubility in dimethyl sulfoxide (DMSO) [2, 7]: soluble
- solubility in ethanol [2, 7]: insoluble
- solubility in methanol [2, 7]: soluble
- solubility in ethanol [2, 8]: ~1000 µg/mL
- times less soluble in ethanol than in water [2, 8]: about 3.5 times
- concentration of sildenafil by HPLC ([3]; 18 mg/ml, with sucralose, 2-8 ° C., Day 7): 18550 µg/mL
- concentration of sildenafil by HPLC ([3]; 18 mg/ml, with sucralose, 2-8 ° C., Day 42): 15240 µg/mL
- concentration of sildenafil by HPLC ([3]; 18 mg/ml, with sucralose, 25 ° C., Day 7): 18000 µg/mL
- concentration of sildenafil by HPLC ([3]; 18 mg/ml, with sucralose, 25 ° C., Day 42): 17940 µg/mL
- concentration of sildenafil by HPLC ([3]; 18 mg/ml, with sucralose, Day 0): 17560 µg/mL
- concentration of sildenafil by HPLC ([3]; 18 mg/ml, without sucralose, 2-8 ° C., Day 7): 18330 µg/mL
- concentration of sildenafil by HPLC ([3]; 18 mg/ml, without sucralose, 2-8 ° C., Day 42): 15230 µg/mL
- concentration of sildenafil by HPLC ([3]; 18 mg/ml, without sucralose, 25 ° C., Day 7): 18080 µg/mL
- concentration of sildenafil by HPLC ([3]; 18 mg/ml, without sucralose, 25 ° C., Day 42): 17190 µg/mL
- concentration of sildenafil by HPLC ([3]; 18 mg/ml, without sucralose, Day 0): 17420 µg/mL
- concentration of sildenafil by HPLC ([3]; 21 mg/ml, without sucralose, 2-8 ° C., Day 7): 22110 µg/mL
- concentration of sildenafil by HPLC ([3]; 21 mg/ml, without sucralose, 2-8 ° C., Day 42): 13780 µg/mL
- concentration of sildenafil by HPLC ([3]; 21 mg/ml, without sucralose, 25 ° C., Day 7): 20400 µg/mL
- concentration of sildenafil by HPLC ([3]; 21 mg/ml, without sucralose, 25 ° C., Day 42): 19610 µg/mL
- concentration of sildenafil by HPLC ([3]; 21 mg/ml, without sucralose, Day 0): 20520 µg/mL
- sildenafil assay ([4]; 20 mg/ml with sucralose 1 mg/ml, monoammonium glycyrrhizinate 1 mg/ml, eucalyptus-menthol 3 mg/ml, Day 0, before storage): 102.02 % LS
- Impurity B [4, 9]: 0.09 % RS
- Impurity D [4, 9]: 0.030 % RS
- sildenafil assay [4, 9]: 100.87 % LS
- Impurity B [4, 10]: 0.11 % RS
- Impurity D [4, 10]: 0.030 % RS
- sildenafil assay [4, 10]: 101.53 % LS
- Impurity B [4, 11]: 0.20 % RS
- Impurity D [4, 11]: 0.034 % RS
- sildenafil assay [4, 11]: 100.91 % LS
- Impurity B [4, 12]: 0.10 % RS
- Impurity D [4, 12]: 0.030 % RS
- sildenafil assay [4, 12]: 100.85 % LS
- Impurity B [4, 13]: 0.20 % RS
- Impurity D [4, 13]: 0.030 % RS
- sildenafil assay [4, 13]: 101.46 % LS
- Impurity B ([4]; glass, 25° C./60% RH, Day 32): 0.07 % RS
- Impurity D ([4]; glass, 25° C./60% RH, Day 32): 0.030 % RS
- sildenafil assay ([4]; glass, 25° C./60% RH, Day 32): 100.76 % LS
- Impurity B ([4]; glass, 25° C./60% RH, Day 80): 0.10 % RS
- Impurity D ([4]; glass, 25° C./60% RH, Day 80): 0.030 % RS
- sildenafil assay ([4]; glass, 25° C./60% RH, Day 80): 101.47 % LS
- Impurity B ([4]; glass, 25° C./60% RH, Day 159): 0.17 % RS
- Impurity D ([4]; glass, 25° C./60% RH, Day 159): 0.038 % RS
- sildenafil assay ([4]; glass, 25° C./60% RH, Day 159): 100.68 % LS
- Impurity B ([4]; glass, 30° C./65% RH, Day 32): 0.10 % RS
- Impurity D ([4]; glass, 30° C./65% RH, Day 32): 0.030 % RS
- sildenafil assay ([4]; glass, 30° C./65% RH, Day 32): 100.46 % LS
- Impurity B ([4]; glass, 40° C./75% RH, Day 32): 0.17 % RS
- Impurity D ([4]; glass, 40° C./75% RH, Day 32): 0.030 % RS
- sildenafil assay ([4]; glass, 40° C./75% RH, Day 32): 100.39 % LS
- Impurity B ([4]; glass, 40° C./75% RH, Day 159): 0.45 % RS
- Impurity D ([4]; glass, 40° C./75% RH, Day 159): 0.039 % RS
- sildenafil assay ([4]; glass, 40° C./75% RH, Day 159): 100.60 % LS
- Impurity B ([4]; plastic, 25° C./60% RH, Day 32): 0.08 % RS
- Impurity D ([4]; plastic, 25° C./60% RH, Day 32): 0.040 % RS
- sildenafil assay ([4]; plastic, 25° C./60% RH, Day 32): 100.42 % LS
- Impurity B ([4]; plastic, 25° C./60% RH, Day 80): 0.09 % RS
- Impurity D ([4]; plastic, 25° C./60% RH, Day 80): 0.030 % RS
- sildenafil assay ([4]; plastic, 25° C./60% RH, Day 80): 101.59 % LS
- Impurity B [4, 14]: 0.16 % RS
- Impurity D [4, 14]: 0.033 % RS
- sildenafil assay [4, 14]: 101.19 % LS
- Impurity B ([4]; plastic, 30° C./65% RH, Day 32): 0.09 % RS
- Impurity D ([4]; plastic, 30° C./65% RH, Day 32): 0.030 % RS
- sildenafil assay ([4]; plastic, 30° C./65% RH, Day 32): 100.79 % LS
- Impurity B ([4]; plastic, 40° C./75% RH, Day 32): 0.17 % RS
- Impurity D ([4]; plastic, 40° C./75% RH, Day 32): 0.030 % RS
- sildenafil assay ([4]; plastic, 40° C./75% RH, Day 32): 100.76 % LS
- absolute bioavailability [5]: about 41%
- visual inspection for crystallization ([6]; 18 mg/ml, with sucralose, 2-8° C.): Prec.
- visual inspection for crystallization ([6]; 18 mg/ml, with sucralose, −20° C.): Prec.
- visual inspection for crystallization ([6]; 18 mg/ml, without sucralose, 2-8° C.): Prec.
- visual inspection for crystallization ([6]; 18 mg/ml, without sucralose, −20° C.): Prec.
- visual inspection for crystallization ([6]; 21 mg/ml, without sucralose, 2-8° C.): Prec.
- visual inspection for crystallization ([6]; 21 mg/ml, without sucralose, −20° C.): Prec.
